Assay results as given in patent US10780090B2, “Heteroaryl compounds useful as inhibitors of SUMO activating enzyme” (Millennium Pharmaceuticals, Inc., priority 2014, dated 2020).

Target: recombinant human SAE enzyme (Homo sapiens (Human), UniProt Q9UBT2)
Experiment: SAE HTRF enzyme assay
Format: biochemical
Conditions: for inhibition at 0.111 µM: read-out: Percent Inhibition
Outline: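 This HTRF format monitors Sumo-Flag–Ubc9-GST thioester formation catalysed by 0.11 nM human SAE with 0.5 μM ATP over 105 min at 24° C. Inhibition is expressed at a single concentration or as IC50.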

Sequence of recombinant human SAE enzyme (Q9UBT2 whole entry): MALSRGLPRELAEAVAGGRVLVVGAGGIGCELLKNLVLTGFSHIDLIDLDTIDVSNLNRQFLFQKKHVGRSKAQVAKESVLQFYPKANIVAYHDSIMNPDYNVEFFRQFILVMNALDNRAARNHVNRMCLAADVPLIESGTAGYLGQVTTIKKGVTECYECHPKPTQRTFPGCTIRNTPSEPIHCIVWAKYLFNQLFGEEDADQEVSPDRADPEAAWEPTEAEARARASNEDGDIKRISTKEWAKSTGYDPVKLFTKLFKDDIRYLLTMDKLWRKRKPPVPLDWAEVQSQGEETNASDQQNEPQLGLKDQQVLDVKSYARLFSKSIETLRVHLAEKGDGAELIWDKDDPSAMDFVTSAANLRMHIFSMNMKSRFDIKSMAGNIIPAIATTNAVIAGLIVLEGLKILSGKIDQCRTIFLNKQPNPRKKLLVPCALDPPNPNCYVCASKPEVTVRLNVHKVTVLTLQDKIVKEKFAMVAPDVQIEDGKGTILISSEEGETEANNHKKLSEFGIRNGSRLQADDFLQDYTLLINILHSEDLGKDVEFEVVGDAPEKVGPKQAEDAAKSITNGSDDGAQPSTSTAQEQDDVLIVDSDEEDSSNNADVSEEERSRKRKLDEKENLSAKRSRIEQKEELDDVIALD
Sequence of recombinant human SAE enzyme (Q9UBE0 whole entry partner): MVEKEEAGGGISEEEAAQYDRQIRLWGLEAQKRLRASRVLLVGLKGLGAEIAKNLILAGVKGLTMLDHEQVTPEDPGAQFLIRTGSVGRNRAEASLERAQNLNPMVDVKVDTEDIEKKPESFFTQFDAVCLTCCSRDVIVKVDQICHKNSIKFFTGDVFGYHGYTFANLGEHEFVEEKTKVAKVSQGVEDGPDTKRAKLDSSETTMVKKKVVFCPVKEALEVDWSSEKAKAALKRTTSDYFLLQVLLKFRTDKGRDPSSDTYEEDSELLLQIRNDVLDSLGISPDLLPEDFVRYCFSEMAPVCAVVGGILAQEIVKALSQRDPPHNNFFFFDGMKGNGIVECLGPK

Molecule | Percent Inhibition (Concentration 0.111 μM) | IC50 (class symbols A/B/C) [nM] | inhibition at 0.111 µM (Concentration 0.111 μM) [%] | Percent Inhibition (SAE inhibition at compound concentration 0.111 μM) [%] | IC50 (SAE inhibition, class symbols, legend in nM) [nM]
N[C@H](c1cccc(Cl)n1)c1cc(C(=O)c2cncnc2N[C@@H]2C[C@H](COS(N)(=O)=O)[C@@H](O)C2)sc1Cl (single isomer, unassigned) [I-25b, [(1R,2S,4R)-4-{[5-({4-[(S)-amino(6-chloropyridin-2-yl)methyl]-5-chloro-2-thienyl}carbonyl)pyrimidin-4-yl]amino}-2-hydroxycyclopentyl]methyl sulfamate or [(1R,2S,4R)-4-{[5-({4-[(R)-amino(6-chloropyridin-2-yl)methyl]-5-chloro-2-thienyl}carbonyl)pyrimidin-4-yl]amino}-2-hydroxycyclopentyl]methyl sulfamate] | 99 | < 10 | – | – | –
NS(=O)(=O)OC[C@H]1C[C@@H](Nc2ncncc2C(=O)c2cc(Cc3ccccc3)c(Cc3ccccc3)o2)C[C@@H]1O [I-139, [(1R,2S,4R)-4-{[5-(4,5-dibenzyl-2-furoyl)pyrimidin-4-yl]amino}-2-hydroxycyclopentyl]methyl sulfamate] | – | < 10 | 94 | – | –
[(1R,2S,4R)-2-hydroxy-4-({5-[(5-methyl-4-{(R)-[3-(trifluoromethyl)phenyl]sulfinyl}-2-thienyl)carbonyl]pyrimidin-4-yl}amino)cyclopentyl]methyl sulfamate and [(1R,2S,4R)-2-hydroxy-4-({5-[(5-methyl-4-{(S)-[3-(trifluoromethyl)phenyl]sulfinyl}-2-thienyl)carbonyl]pyrimidin-4-yl}amino)cyclopentyl]methyl sulfamate [I-69] | 100 | < 10 | – | – | –
NS(=O)(=O)OC[C@H]1C[C@@H](Nc2ncncc2C(=O)c2cc(C3NCCc4ccc(Cl)cc43)cs2)C[C@@H]1O (single isomer, unassigned) [I-274a, [(1R,2S,4R)-4-{[5-({4-[(1R)-7-chloro-1,2,3,4-tetrahydroisoquinolin-1-yl]-2-thienyl}carbonyl)pyrimidin-4-yl]amino}-2-hydroxycyclopentyl]methyl sulfamate or [(1R,2S,4R)-4-{[5-({4-[(1S)-7-chloro-1,2,3,4-tetrahydroisoquinolin-1-yl]-2-thienyl}carbonyl)pyrimidin-4-yl]amino}-2-hydroxycyclopentyl]methyl sulfamate] | 98 | < 10 | – | – | –
NS(=O)(=O)OC[C@H]1C[C@@H](Nc2ncncc2C(=O)c2cc([C@@H]3OCCc4ccc(F)cc43)c(Cl)s2)C[C@@H]1O (single isomer, unassigned) [I-294, [(1R,2S,4R)-4-[[5-[5-chloro-4-[(1R)-7-fluoroisochroman-1-yl]thiophene-2-carbonyl]pyrimidin-4-yl]amino]-2-hydroxy-cyclopentyl]methyl sulfamate or [(1R,2S,4R)-4-[[5-[5-chloro-4-[(1S)-7-fluoroisochroman-1-yl]thiophene-2-carbonyl]pyrimidin-4-yl]amino]-2-hydroxy-cyclopentyl]methyl sulfamate] | – | – | – | 99 | < 10
Cc1sc(C(=O)c2cncnc2N[C@@H]2C[C@H](COS(N)(=O)=O)[C@@H](O)C2)cc1[C@H]1NCCc2ccc(Br)cc21 (single isomer, unassigned) [I-248b, [(1R,2S,4R)-4-{[5-({4-[(1S)-7-bromo-1,2,3,4-tetrahydroisoquinolin-1-yl]-5-methyl-2-thienyl}carbonyl)pyrimidin-4-yl]amino}-2-hydroxycyclopentyl]methyl sulfamate or [(1R,2S,4R)-4-{[5-({4-[(1R)-7-bromo-1,2,3,4-tetrahydroisoquinolin-1-yl]-5-methyl-2-thienyl}carbonyl)pyrimidin-4-yl]amino}-2-hydroxycyclopentyl]methyl sulfamate] | 95 | < 10 | – | – | –
[(1R,2S,4R)-4-{[5-({5-chloro-4-[(1S)-1,2,3,4-tetrahydroisoquinolin-1-yl]-2-thienyl}carbonyl)pyrimidin-4-yl]amino}-2-hydroxycyclopentyl]methyl sulfamate and [(1R,2S,4R)-4-{[5-({5-chloro-4-[(1R)-1,2,3,4-tetrahydroisoquinolin-1-yl]-2-thienyl}carbonyl)pyrimidin-4-yl]amino}-2-hydroxycyclopentyl]methyl sulfamate [I-279] | 99 | < 10 | – | – | –
CC(C)[C@@H](O)c1cc(C(=O)c2cncnc2N[C@@H]2C[C@H](COS(N)(=O)=O)[C@@H](O)C2)sc1Cl (mixture of isomers) [I-195, [(1R,2S,4R)-4-{[5-({5-chloro-4-[(1R)-1-hydroxy-2-methylpropyl]-2-thienyl}carbonyl)pyrimidin-4-yl]amino}-2-hydroxycyclopentyl]methyl sulfamate and [(1R,2S,4R)-4-{[5-({5-chloro-4-[(1S)-1-hydroxy-2-methylpropyl]-2-thienyl}carbonyl)pyrimidin-4-yl]amino}-2-hydroxycyclopentyl]methyl sulfamate] | 68 | 10 to 100 | – | – | –
Cc1sc(C(=O)c2cncnc2N[C@@H]2C[C@H](COS(N)(=O)=O)[C@@H](O)C2)cc1[C@H](C)c1cccc(Cl)c1 (single isomer, unassigned) [I-135a, [(1R,2S,4R)-4-{[5-({4-[(1R)-1-(3-chlorophenyl)ethyl]-5-methyl-2-thienyl}carbonyl)pyrimidin-4-yl]amino}-2-hydroxycyclopentyl]methyl sulfamate or [(1R,2S,4R)-4-{[5-({4-[(1S)-1-(3-chlorophenyl)ethyl]-5-methyl-2-thienyl}carbonyl)pyrimidin-4-yl]amino}-2-hydroxycyclopentyl]methyl sulfamate] | 82 | 10 to 100 | – | – | –
NS(=O)(=O)OC[C@H]1C[C@@H](Nc2ncncc2C(=O)c2cc(Cc3cccc(Br)c3)c(Cl)s2)[C@H](O)[C@@H]1O [I-76, {(1R,2R,3S,4R)-4-[(5-{[4-(3-bromobenzyl)-5-chloro-2-thienyl]carbonyl}pyrimidin-4-yl)amino]-2,3-dihydroxycyclopentyl}methyl sulfamate] | – | < 10 | 99 | – | –
NS(=O)(=O)OC[C@H]1C[C@@H](Nc2ncncc2C(=O)c2cc(Cc3ccccc3)cs2)C[C@@H]1O [I-88, [(1R,2S,4R)-4-({5-[(4-benzyl-2-thienyl)carbonyl]pyrimidin-4-yl}amino)-2-hydroxycyclopentyl]methyl sulfamate] | – | < 10 | 98 | – | –
CN[C@@H](c1cccc(Cl)c1)c1cc(C(=O)c2cncnc2N[C@@H]2C[C@H](COS(N)(=O)=O)[C@@H](O)C2)sc1Cl.CN[C@H](c1cccc(Cl)c1)c1cc(C(=O)c2cncnc2N[C@@H]2C[C@H](COS(N)(=O)=O)[C@@H](O)C2)sc1Cl (mixture of isomers) [I-95, [(1R,2S,4R)-4-{[5-({5-Chloro-4-[(S)-(3-chlorophenyl)(methylamino)methyl]-2-thienyl}carbonyl)pyrimidin-4-yl]amino}-2-hydroxycyclopentyl]methyl sulfamate and [(1R,2S,4R)-4 {[5-({5-Chloro-4-[(R)-(3-chlorophenyl)(methylamino)methyl]-2-thienyl}carbonyl)pyrimidin-4-yl]amino}-2-hydroxycyclopentyl]methyl sulfamate] | 97 | < 10 | – | – | –
CC(O)(c1cccc(Cl)c1)c1csc(C(=O)c2cncnc2NC2CC(O)C(COS(N)(=O)=O)C2)c1 (mixture of isomers) [I-5, [(1R,2S,4R)-4-{[5-({4-[(1R)-1-(3-chlorophenyl)-1-hydroxyethyl]-2-thienyl}carbonyl)pyrimidin-4-yl]amino}-2-hydroxycyclopentyl]methyl sulfamate and [(1R,2S,4R)-4-{[5-({4-[(1S)-1-(3-chlorophenyl)-1-hydroxyethyl]-2-thienyl}carbonyl)pyrimidin-4-yl]amino}-2-hydroxycyclopentyl]methyl sulfamate] | 99 | < 10 | – | – | –
NS(=O)(=O)OC[C@H]1C[C@@H](Nc2ncncc2C(=O)c2cc(Cc3ccc(Cl)o3)cs2)C[C@@H]1O [I-66, [(1R,2S,4R)-4-{[5-({4-[(5-chloro-2-furyl)methyl]-2-thienyl}carbonyl)pyrimidin-4-yl]amino}-2-hydroxycyclopentyl]methyl sulfamate] | – | < 10 | 98 | – | –
NS(=O)(=O)OC[C@H]1C[C@@H](Nc2ncncc2C(=O)c2cc(CN3CC=CCC3)cs2)C[C@@H]1O [I-204, {(1R,2S,4R)-4-[(5-{[4-(3,6-dihydropyridin-1(2H)-ylmethyl)-2-thienyl]carbonyl}pyrimidin-4-yl)amino]-2-hydroxycyclopentyl}methyl sulfamate] | – | 10 to 100 | 52 | – | –
Cc1sc(C(=O)c2cncnc2N[C@@H]2C[C@H](COS(N)(=O)=O)[C@@H](O)C2)cc1CN1CCc2cc(Cl)ccc21 [I-159, [(1R,2S,4R)-4-{[5-({4-[(5-chloro-2,3-dihydro-1H-indol-1-yl)methyl]-5-methyl-2-thienyl}carbonyl)pyrimidin-4-yl]amino}-2-hydroxycyclopentyl]methyl sulfamate] | – | < 10 | 91 | – | –
NS(=O)(=O)OC[C@H]1C[C@@H](Nc2ncncc2C(=O)c2cc([C@@H]3NCCc4ccc(Cl)cc43)c(Cl)s2)[C@H](O)[C@@H]1O (single isomer, unassigned) [I-249a, [(1R,2R,3S,4R)-4-{[5-({5-chloro-4-[(1R)-7-chloro-1,2,3,4-tetrahydroisoquinolin-1-yl]-2-thienyl}carbonyl)pyrimidin-4-yl]amino}-2,3-dihydroxycyclopentyl]methyl sulfamate or [(1R,2R,3S,4R)-4-{[5-({5-chloro-4-[(1S)-7-chloro-1,2,3,4-tetrahydroisoquinolin-1-yl]-2-thienyl}carbonyl)pyrimidin-4-yl]amino}-2,3-dihydroxycyclopentyl]methyl sulfamate] | 100 | < 10 | – | – | –
